How the values were obtained:
Assay type in all cases: biochemical
[1] = target: T1, T4 DNA polymerase (Enterobacteria phage T4, UniProt P04415); test: Mesophilic DNA polymerase primer extension, T4; set-up: key to result of incorporation (termination / further chain extension): T: Incorporation results in termination; E: Incorporation permits further chain extension; T/E: Predominant product is primer extended by one base, but evidence of some further extension also observed; settings: DNA template, 37° C. for 20–40 minutes; for primer extended by at least one base within assay time (grade): TTP replaced entirely by test compound
T1 construct: purchased AP Biotech
T1 sequence (P04415 1-898): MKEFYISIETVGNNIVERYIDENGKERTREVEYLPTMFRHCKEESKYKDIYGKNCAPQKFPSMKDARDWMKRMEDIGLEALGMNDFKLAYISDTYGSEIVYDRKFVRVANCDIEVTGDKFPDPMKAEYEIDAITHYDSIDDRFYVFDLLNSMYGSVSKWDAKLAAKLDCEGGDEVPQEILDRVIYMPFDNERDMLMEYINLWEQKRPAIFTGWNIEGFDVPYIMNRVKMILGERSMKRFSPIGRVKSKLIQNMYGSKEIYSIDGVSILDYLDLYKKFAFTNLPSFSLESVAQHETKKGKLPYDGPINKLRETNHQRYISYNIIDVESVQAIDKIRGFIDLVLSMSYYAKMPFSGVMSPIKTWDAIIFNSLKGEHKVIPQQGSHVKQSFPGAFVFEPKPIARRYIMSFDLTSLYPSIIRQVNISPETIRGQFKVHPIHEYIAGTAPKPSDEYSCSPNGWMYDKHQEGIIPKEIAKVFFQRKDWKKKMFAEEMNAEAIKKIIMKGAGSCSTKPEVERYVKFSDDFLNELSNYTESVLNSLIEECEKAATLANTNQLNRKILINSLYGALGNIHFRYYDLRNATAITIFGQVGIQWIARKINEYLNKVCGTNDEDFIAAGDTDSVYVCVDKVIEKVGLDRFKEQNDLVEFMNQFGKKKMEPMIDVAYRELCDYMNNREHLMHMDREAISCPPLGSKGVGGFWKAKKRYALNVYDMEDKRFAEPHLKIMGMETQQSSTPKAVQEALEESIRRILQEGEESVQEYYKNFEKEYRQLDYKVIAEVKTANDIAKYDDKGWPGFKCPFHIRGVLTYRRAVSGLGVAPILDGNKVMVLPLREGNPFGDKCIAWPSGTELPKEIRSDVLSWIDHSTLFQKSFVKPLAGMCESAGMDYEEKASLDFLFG
Protocol: (§1) DNA polymerase assays were performed using Sequence 1 as primer and Sequence 2 as template. • Sequence 1 5′[Cy3]TAACTCATTAACAGGATC 3′ • Sequence 2 5′AT TCGCGGTATTCTGGTATGAAGCTTTTAGATCCTGTTAATGAGTTA GTA3′
(§2) The template (Sequence 2) was designed such that the base (underlined) immediately adjacent to the 3′ end of the hybridised primer is complementary to the nucleotide test compound. Nucleotide test compounds were compounds (6) (4′-C-(glycylaminomethyl)thymidine triphosphate), (8) (4′-C-(N-trifluoroacetyaminomethyl)thymidine triphosphate) and (9) (4′-C-(aminomethyl)thymidine triphosphate) as described above.
(§3) Primer extension reactions were performed using the above primers in the presence of 40 to 80 μM of nucleotide triphosphates. Positive control reactions contained all four native nucleotide triphosphates. For the other reactions the TTP was replaced with either a 2:1 ratio of […] for the terminator control, or entirely by the test compound The enzymes were used at a final concentration of 0.175 units/μl and a magnesium ion concentration of 2.5 mM in buffers supplied by the manufacturer. The primer and template concentrations were 0.5 pmol/μl and 2 pmol/μl respectively.
Extension reactions preformed with mesophilic polymerases were carried out by mixing all the components of the reaction except the enzyme and heating to 70° C. for 5 min. After the reactions had cooled to room temperature 0.175 units of the enzyme were added and the reactions heated to 37° C. for 20–40 minutes. The following enzymes were used: T7 DNA polymerase (T7); Sequenase 2™ (Seq); Klenow fragment of DNA polymerase 1 (Klen); phi-29 DNA polymerase (Phi-29); T4 DNA polymerase (T4) (all from AP Biotech) and Bst DNA polymerase (Bst) (Cambio Ltd).
(§4) The reactions were stopped by adding a 0.5 volume aliquot of 80% formamide containing 0.1% (w/v) bromophenol blue and 0.1% (w/v) cresol blue. The reaction products were separated by denaturing gel electrophoresis at a constant power of 45 W on 16% polyacrylamide gels containing 50% urea.
(§5) Gels were scanned for Cy3 fluorescence on a Molecular Dynamics Fluorimager and the data analysed using Molecular Dynamics ImageQuant 5 software.
(§6) The incorporation of a test nucleotide triphosphate results in the appearance on a polyacrylamide gel of a single band corresponding to a single base extension product. If, however, the enzyme adds additional bases then further bands would be observed that corresponded to either the full-length product or positions of other complementary bases in the template.

[2] = tested on: Thermosequenase II; test: Thermostable polymerase under reverse transcription conditions, TS II; set-up: key to result of incorporation (termination / further chain extension): T: Incorporation results in termination; E: Incorporation permits further chain extension; T/E: Predominant product is primer extended by one base, but evidence of some further extension also observed; settings: RNA template, 2.5 mM Manganese ions; for primer extended by at least one base within assay time (grade): Tth reaction buffer
Protocol: as §1, §2, §3
(§7) Extension reactions with thermophilic enzymes were performed by initially denaturing the fully assembled reactions at 70° C. for 5 min. followed by 45° C. for 20–40 minutes. The following enzymes were used: Taq DNA polymerase (Taq); Thermosequenase (TS); Thermosequenase II (TSII); Thermosequenase E (TSE), Tfl DNA polymerase (Tfl); Tth DNA polymerase (Tth), deltaTts DNA polymerase (deltaTts), deltaTts D DNA polymerase (dettaTTSD) (all from APBiotech); Pfu DNA polymerase (Pfu) (Stratagene Ltd); Vent™ DNA polymerase (Vent) (New England Biolabs).
(§8) Reverse transcriptase reactions were performed essentially as described above for thermophilic and mesophilic enzymes. The template for these reactions was the RNA equivalent of sequence 2. All the thermophilic enzymes were assayed in Tth reaction buffer (Cambio Ltd, Cambridge UK) containing 2.5 mM Manganese ions. The following enzymes were used: Thermosequenase (TS1); Thermosequenase II (TSII); delta Tts DNA polymerase (deltaTts); delta Tts D DNA polymerase (deltaTtsD) (all from APBiotech); Retrotherm reverse transcriptase (Retroth) (Cambio Ltd); Tth DNA polymerase (Tth) (Cambio Ltd.).
as §4, §5, §6

[3] = tested on: delta Tts DNA polymerase; test: Thermostable polymerase under reverse transcription conditions, delta Tts; set-up: key to result of incorporation (termination / further chain extension): T: Incorporation results in termination; E: Incorporation permits further chain extension; T/E: Predominant product is primer extended by one base, but evidence of some further extension also observed; key to primer extended by at least one base within assay time (grade): −: No extension within assay time; +/−: up to 25% of primer extended by at least one base within assay time; +: up to 50% of primer extended by at least one base within assay time; ++: up to 75% of primer extended by at least one base within assay time; +++: essentially all primer extended by at least one base within assay time; settings: RNA template, 2.5 mM Manganese ions; for primer extended by at least one base within assay time (grade): Tth reaction buffer
Protocol: as §1, §2, §3, §7, §8, §4, §5, §6

Molecule	result of incorporation (termination / further chain extension) [1]	primer extended by at least one base within assay time (grade) [1]	result of incorporation (termination / further chain extension) [2]	primer extended by at least one base within assay time (grade) [2]	result of incorporation (termination / further chain extension) [3]	primer extended by at least one base within assay time (grade) [3]
4′-C-(Aminomethyl)thymidine triphosphate [compound (9)]	T	+ (up to 50% of primer extended by at least one base within assay time)	E	++ (up to 75% of primer extended by at least one base within assay time)	T	+++
Cc1cn([C@H]2C[C@H](O)[C@@](CNC(=O)C(F)(F)F)(COP(=O)(O)OP(=O)(O)OP(=O)(O)O)O2)c(=O)[nH]c1=O [compound (8), 4′-C-(N-trifluoroacetylaminomethyl)thymidine triphosphate]	T	+ (up to 50% of primer extended by at least one base within assay time)	E	+ (up to 50% of primer extended by at least one base within assay time)	T	+++
4′-C-(Glycylaminomethyl)thymidine triphosphate [compound (6)]	T	+ (up to 50% of primer extended by at least one base within assay time)	E	+ (up to 50% of primer extended by at least one base within assay time)	T	+++

Reference: patent US7078499B2, “Nucleotide analogues comprising a reporter moiety and a polymerase enzyme blocking moiety” (GE Healthcare UK Limited, priority 2000, dated 2006)
